Data: article PMC5729429, “Gimatecan exerts potent antitumor activity against gastric cancer in vitro and in vivo via AKT and MAPK signaling pathways” (Journal of Translational Medicine, 2017)
Where a name gives a salt, the structure may show the parent alone.

Test system: DNA TopI
Test: Western blot of DNA TopI expression in GC cells
Type: cell-based, human
Conditions: SNU-1, HGC27 and NCI-N87; 48 h; gimatecan at 100 nM or more; irinotecan even at high concentrations
Method: SNU-1, HGC27 and NCI-N87 cells were starved in serum-free medium overnight, exposed to inhibitors for 48 h and harvested at 70–80% confluence. Total protein was extracted from cells or xenograft tissues on ice, using RIPA Lysis Buffer (Beyotime, Shanghai, China) supplemented with complete protease inhibitor and phosphatase inhibitor cocktail (Roche, Basel, Switzerland). Protein concentration was measured using a BCA Protein Assay Kit (Beyotime, Shanghai, China), and 50 μg protein from each sample was separated by 10% SDS-PAGE. After transfer to nitrocellulose membranes (GE Healthcare, Piscataway, NJ), samples were incubated with corresponding primary antibodies diluted in 5% BSA at 4 °C overnight and then with secondary antibodies at room temperature for 1 h. Proteins were visualized with a chemiluminescent detection system (GE Healthcare), using ECL plus Western blot reagents (GE Healthcare). Western-blotting bands were quantified and normalized by ImageJ software.
Cells were starved in serum-free medium overnight, exposed to gimatecan or irinotecan for 48 h and harvested at 70–80% confluence. Total protein of SNU-1 and NCI-N87 was extracted and the expression of TopI, pAKT, pMEK, pERK, p-p38 MAPK and pJNK2 were assessed by western-blotting followed by quantification and normalization by ImageJ. All data are mean ± SD of three independent experiments. Compared with controls, *p < 0.05

Structure (SMILES) | expression of DNA TopI
CC[C@@]1(O)C(=O)OCc2c1cc1n(c2=O)Cc2c-1nc1ccccc1c2/C=N/OC(C)(C)C [Gimatecan, 7-t-butoxyiminomethylcamptothecin] | significantly inhibited
CCc1c2c(nc3ccc(OC(=O)N4CCC(N5CCCCC5)CC4)cc13)-c1cc3c(c(=O)n1C2)COC(=O)[C@]3(O)CC [Irinotecan, irinotecan hydrochloride] | little effect
